Results published in US11951088B2, “Fatty acid analogs and their use in the treatment of conditions related to metabolic syndrome” (Epitracker, Inc., priority 2017, dated 2024).
Read-outs that look alike come from different tables or passages of the source.

Experiments:
[1] = target: T1, human PPAR-α (Homo sapiens, UniProt Q07869); assay: PathHunter NHR Protein Interaction assay, PPAR-α agonist activity (CHO cells); conditions: PPAR-alpha; Table 4
T1 sequence (Q07869 1-468): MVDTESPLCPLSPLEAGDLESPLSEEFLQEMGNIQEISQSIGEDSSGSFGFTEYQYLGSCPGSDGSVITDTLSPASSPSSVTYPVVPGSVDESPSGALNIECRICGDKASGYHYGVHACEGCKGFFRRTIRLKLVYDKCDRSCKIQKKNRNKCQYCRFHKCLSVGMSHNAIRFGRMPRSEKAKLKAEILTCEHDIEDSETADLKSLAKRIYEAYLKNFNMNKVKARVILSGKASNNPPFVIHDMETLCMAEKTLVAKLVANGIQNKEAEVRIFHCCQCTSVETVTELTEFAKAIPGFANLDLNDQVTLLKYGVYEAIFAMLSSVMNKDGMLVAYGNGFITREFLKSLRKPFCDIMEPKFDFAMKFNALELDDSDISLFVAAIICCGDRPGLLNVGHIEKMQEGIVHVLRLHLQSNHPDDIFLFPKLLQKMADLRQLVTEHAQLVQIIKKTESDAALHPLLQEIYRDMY
Method: (§1) PPAR-α, PPAR-δ, and PPAR-γ agonist activities were measured using PathHunter Nuclear Hormone Receptor (NHR) Protein Interaction (Pro) assays (DiscoverX, Freemont, California). Briefly, Chinese hamster ovary (CHO) cell lines were used to monitor the activation of PPAR-α, PPAR-δ, and PPAR-γ in a homogenous, non-imaging assay format using Enzyme Fragment Complementation (EFC). The NHR Pro assay was based on detection of protein-protein interactions between activated, full length PPAR-α, PPAR-δ, and PPAR-γ proteins and a nuclear fusion protein containing Steroid Receptor Co-activator Peptide (SRCP) domains with one or more canonical LXXLL interaction motifs. PPAR-α, PPAR-δ, and PPAR-γ were tagged with the ProLink component of the EFC assay system, and the SRCP domain was fused to the enzyme acceptor component (EA) expressed in the nucleus. When bound by ligand, PPAR-α, PPAR-δ, or PPAR-γ migrated to the nucleus and recruited the SRCP domain, whereby complementation occurred, generating a unit of active β-Galactosidase (β-Gal) and production of chemiluminescent signal. […] Percentage activity was calculated using the following formula: % Activity=100%×(mean RLU of test sample−mean RLU of vehicle control)/(mean MAX control ligand−mean RLU of vehicle control).

[2] = system: C57BL/6J mice fed a high fat diet; assay: diet-induced obese mice treated daily by gastric gavage for 12 weeks; format: in vivo
Method: Forty C57BL/6J mice were fed a high fat diet (HFD) (D12492, 60% kcals fat) for 8 weeks. Study mice were then divided into the following four groups of ten: vehicle controls, low dose C17:0-treated (5 mg/kg body weight), high-dose C17:0-treated (50 mg/kg body weight), and low-dose C15:0-treated (5 mg/kg body weight).
Table 1 provides comparisons of cardiometabolic effects in diet-induced obese mice treated daily with oral pentadecanoic acid (5 mg/kg BW), heptadecanoic acid (5 and 50 mg/kg BW) for 12 weeks compared to vehicle controls. “Results” values are based on 6 h fasted samples.

[3] = 24-hour plasma pharmacokinetics after single oral dose in rats; format: in vivo; conditions: for bioavailability: po, 35 mg/kg
[4] = target: T2, human PPAR-γ (Homo sapiens, UniProt P37231); assay: PathHunter NHR Protein Interaction assay, PPAR-γ agonist activity (CHO cells)
T2 sequence (P37231 1-505): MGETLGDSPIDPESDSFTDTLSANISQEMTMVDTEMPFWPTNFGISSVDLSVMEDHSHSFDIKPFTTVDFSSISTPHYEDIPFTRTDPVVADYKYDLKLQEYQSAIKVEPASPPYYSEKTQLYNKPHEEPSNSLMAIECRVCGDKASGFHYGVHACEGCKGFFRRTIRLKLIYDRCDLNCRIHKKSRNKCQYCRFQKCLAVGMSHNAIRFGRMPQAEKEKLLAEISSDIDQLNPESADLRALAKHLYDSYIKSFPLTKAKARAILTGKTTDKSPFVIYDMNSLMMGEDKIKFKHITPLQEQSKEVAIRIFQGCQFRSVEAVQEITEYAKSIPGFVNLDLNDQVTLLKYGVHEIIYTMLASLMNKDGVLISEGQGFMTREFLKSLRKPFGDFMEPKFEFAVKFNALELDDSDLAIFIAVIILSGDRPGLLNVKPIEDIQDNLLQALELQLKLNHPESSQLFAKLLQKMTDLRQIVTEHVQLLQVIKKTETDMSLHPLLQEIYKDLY
Method: as §1

[5] = target: T3, human PPAR-δ (Homo sapiens, UniProt Q03181); assay: PathHunter NHR Protein Interaction assay, PPAR-δ agonist activity (CHO cells)
T3 sequence (Q03181 1-441): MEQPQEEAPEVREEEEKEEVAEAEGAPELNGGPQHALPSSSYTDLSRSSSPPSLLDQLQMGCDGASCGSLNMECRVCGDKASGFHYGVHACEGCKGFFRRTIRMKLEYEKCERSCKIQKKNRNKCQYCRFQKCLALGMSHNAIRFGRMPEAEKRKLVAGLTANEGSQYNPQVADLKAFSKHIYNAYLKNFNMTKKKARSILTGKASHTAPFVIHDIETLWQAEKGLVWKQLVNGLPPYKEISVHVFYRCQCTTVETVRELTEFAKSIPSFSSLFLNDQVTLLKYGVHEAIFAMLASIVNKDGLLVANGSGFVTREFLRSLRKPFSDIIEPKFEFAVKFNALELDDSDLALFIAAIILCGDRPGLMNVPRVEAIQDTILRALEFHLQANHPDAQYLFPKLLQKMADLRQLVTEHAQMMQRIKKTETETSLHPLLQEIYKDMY
Method: as §1

[6] = system: New Zealand white rabbits fed a high fat diet; assay: diet-induced rabbit model for metabolic syndrome-associated dyslipidemia, anemia, liver iron overload and steatohepatitis; format: in vivo; conditions: Day 76
Description: This study further assessed the efficacy of treating diseases associated with metabolic syndrome, including dyslipidemia, inflammation, anemia, liver iron overload and nonalcoholic steatohepatitis, using an oral odd-chain saturated fatty acid. Sixteen New Zealand white rabbits were fed a high fat diet (HFD) (4% peanut oil and 0.5% cholesterol) for 2 weeks. Eight additional rabbits were maintained on a baseline diet. Study rabbits were then divided into the following three groups of eight: baseline diet controls, HFD controls, and C15:0-treated (35 mg/kg body weight) cases. The test article was a synthetic powder stable at room temperature and purchased from Sigma-Aldrich (Products W433400 (≥99% C15:0). The test article was provided daily in the diet for 11 weeks (76 days) while continuing ad libitum access to the HFD (HFD controls and treated groups) or baseline diet (baseline diet controls). Body weight and food intake were measured weekly. Plasma clinical chemistries and red blood cell indices, as well as iron deposition and fibrosis in the liver, were assessed at Day 76. Data from the treated group were compared to the control groups using Wilcoxon rank sum analyses. […].
Table 2 provides comparisons of clinical effects from a diet-induced rabbit model for metabolic syndrome-associated dyslipidemia, inflammation, and hemolytic anemia, including a case group treated daily with oral pentadecanoic acid (C15:0) (35 mg/kg BW) for 11 weeks.
Table 3 provides comparisons of effects on liver histology in a diet-induced rabbit model for metabolic syndrome-associated liver iron overload and nonalcoholic steatohepatitis, including a case group treated daily with oral pentadecanoic acid (C15:0) (35 mg/kg BW) for 11 weeks.

[7] = Day 84, 6 h fasted, 5 mg/kg daily oral

CCCCCCCCCCCCCCC(=O)O [C15:0, pentadecanoic acid]
EC50 [1]: 11.5 µM | metabolic syndrome compared to vehicle controls (in words) ([2]; 12 weeks daily oral, C15:0 5 mg/kg, C17:0 5 and 50 mg/kg): attenuated metabolic syndrome | Cholesterol [2, 7]: 183 ± 25 mg/dL | Glucose [2, 7]: 245 ± 37 mg/dL | IL-6 [2, 7]: 19 ± 11 pg/mL | Insulin [2, 7]: 4.9 ± 3.8 ng/mL | LDL-C [2, 7]: 6 ± 4 mg/dL | MCP-1 [2, 7]: 52 ± 25 pg/mL | TNF-α [2, 7]: 1.6 ± 1.0 pg/mL | Cmin ([3]; 35 mg/kg single oral dose): 0.70 µg/mL | Tlast ([3]; 35 mg/kg single oral dose): 24 h | AUC(0-t) ([3]; rat, 35 mg/kg single oral dose): 46.4 µg·h/mL | Tmax ([3]; rat, 35 mg/kg single oral dose): 1 h | Cmax ([3]; rat, 35 mg/kg single oral dose, deuterated form): 4.98 µg/mL | bioavailability ([3]; rat, 35 mg/kg single oral dose, estimate using an AUC of 15 for a 1 mg/kg IV arm, read-out: % F): 8.83% | bioavailability ([3]; rat, oral, rats, read-out: estimated plasma % F (bioavailability)): 9% | EC50 [4]: > 100 µM | EC50 ([4]; read-out: Half Maximal Effective Concentration (EC50), PPAR-γ, Table 5): > 100 µM | PPAR-delta agonist activity (in words) [5]: partial PPAR delta agonist | clinical effects compared to the HFD controls (in words) ([6]; 35 mg/kg): attenuated anemia, liver iron deposition, and liver fibrosis | Hematocrit ([6]; 35 mg/kg/day in HFD): 38 ± 4% | Hemoglobin ([6]; 35 mg/kg/day in HFD): 14 ± 1 G/dl | Mean cell hemoglobin ([6]; 35 mg/kg/day in HFD): 23 ± 1 pg | Mean cell volume ([6]; 35 mg/kg/day in HFD): 64 ± 2 fL | Nucleated red blood cells ([6]; 35 mg/kg/day in HFD): 8 ± 1 10^3/ul | Platelets ([6]; 35 mg/kg/day in HFD): 485 ± 87 10^3/ul | Red blood cell distribution width ([6]; 35 mg/kg/day in HFD): 15 ± 1% | Red blood cells ([6]; 35 mg/kg/day in HFD): 6.0 ± 0.7 10^6/ul | Cholesterol ([6]; plasma, 35 mg/kg/day in HFD): 2516 ± 746 mg/dL | Globulins ([6]; plasma, 35 mg/kg/day in HFD): 1.3 ± 0.7 G/dl | Lipemia ([6]; plasma, 35 mg/kg/day in HFD): 341 ± 243 mg/dL | Triglycerides ([6]; plasma, 35 mg/kg/day in HFD): 235 ± 132 mg/dL
